This passage reports Activity results from ChEMBL document CHEMBL1687772, “Lysyl-phosphatidylglycerol attenuates membrane perturbation rather than surface association of the cationic antimicrobial peptide 6W-RP-1 in a model membrane system: implications for daptomycin resistance” (Antimicrob Agents Chemother, 2010).

Active and inactive are the calls of the source. The rule behind the calls is not given here.

In assay [1] the test system is Lipid bilayer. The assay is described as follows: Binding affinity to POPG:POPC:lysyl-DOPG:7MC-POPE unilamellar lipid vesicle with >30 mol% of lysyl-DOPG at 0.5 uM by FRET assay.
For assay [2], the system named is Lipid bilayer. The assay can be described thus: Binding affinity to POPG:POPC:lysyl-DOPG:7MC-POPE unilamellar lipid vesicle with <30 mol% of lysyl-DOPG at 0.5 uM by FRET assay.

As for H-ALYKKWKKKLLKSLKRLG-OH, the outcome in assay [1] was inactive. The outcome in assay [2] was Active.
